{"source": "patent US20220257552A1", "about": "“METHODS OF PRESCREENING AND TREATING BREAST CANCERS WITH SELECTIVE ANDROGEN RECEPTOR MODULATORS” (priority 2021, published 2022)", "key": {"[1]": {"experiment": "Phase 3 trials in non-small cell lung cancer (muscle wasting)", "assay_type": "in vivo, human", "details": "3 mg daily", "source_text": "These include: 1. Protocol G100401, a Phase 1 single ascending dose study in 96 healthy, young, male volunteers; 2. Protocol G100402, a Phase 1 multiple ascending dose study in 50 healthy, young, male volunteers, and 23 elderly male volunteers with truncal obesity; 3. Protocol G100503, a Phase 1 single dose pharmacokinetic study to assess the effect of a dosage regimen that simulates a sustained release formulation to an immediate release formulation in 18 healthy, young male volunteers and 18 postmenopausal women; 4. Protocol G100506, a Phase 1 single dose pharmacokinetic study to assess the relative bioavailability of a 3 mg hard shell capsule formulation to be used during continued clinical development and to assess the effect of food on the pharmacokinetics of the 3 mg softgel formulation in 27 healthy, young, male volunteers; 5. Protocol 006, a Phase 1 single dose and multiple dose pharmacokinetic study in 24 postmenopausal, Japanese women; 6. Protocol G200501, a Phase 2 study in 60 postmenopausal women and 60 elderly men to assess lean body mass and physical function; 7. Protocol 003, a Phase 1b study in 44 postmenopausal women; 8."}, "[2]": {"tested_on": "HCI-9 PDX", "experiment": "HCI-9 patient-derived xenograft in NSG mice", "assay_type": "in vivo", "details": "Formula IX 10 mpk, enzalutamide 30 mpk p.o.", "procedure": "(§1) All animal protocols were approved by The University of Tennessee Health Science Center (UTHSC) Institutional Animal Care and Use Research Committee. Xenograft experiments were performed as previously published (Narayanan et al. (2014) PLoS One 9, e103202). Briefly, 3 million MCF-7 cells were suspended in 0.05 ml MEM+10% FBS and 0.05 ml Matrigel/nude mouse and were injected subcutaneously. Once the tumor size reached 100-200 mm^3, the animals were randomized and treated orally with the indicated drugs formulated in DMSO:PEG-300 (15:85). HCI-7, HCI-9, and HCI-13 PDXs were gifts kindly donated by Dr. Alana Welm (Huntsman Cancer Institute, Salt Lake City, Utah). HCI PDX tumor fragments (1 mm^3) were surgically implanted under the mammary fat pad in female NOD SCID Gamma (NSG) mice. Tumor volume was measured twice weekly for MCF-7 xenograft and once or twice weekly for HCI PDXs. At the end of the study, animals were sacrificed and tumors were excised, weighed, and stored for various analyses.\nTo determine if the same effect is observed in an AR-positive, but ER-negative breast cancer, HCI-9 tumor fragments were implanted under the mammary fat pad of NSG mice."}, "[3]": {"tested_on": "HCI-13 tumors", "experiment": "Phospho-proteomics of HCI-13 PDX tumors", "set-up": "species or system mice", "details": "mouse, in vivo", "procedure": "Whole tissue lysates were directly prepared from the tissue sections using a 1:1 mixture of T-PER (Tissue Protein Extraction Reagent; Pierce, Rockford, Ill.) and 2× Tris-Glycine SDS Sample Buffer (Invitrogen, Carlsbad, Calif.) supplemented with 5% 2-mercaptoethanol. Samples were boiled for 8 minutes and stored at −80° C. until arrayed.\nSamples and standard curves for internal quality assurance were printed onto nitrocellulose-coated slides (Grace Bio-labs, Bend, Oreg.) using an Aushon 2470 arrayer (Aushon BioSystems, Billerica, Mass.). Selected arrays were used to estimate the amount of protein in each sample using a Sypro Ruby Protein Blot Stain (Molecular Probes, Eugene, Oreg.) protocol following manufacturer's instructions (Pin et al. (2014) Curr Protoc Prtein Sci 75, Unit 27 27). Remaining arrays were tested with a single primary antibody using an automated system (Dako Cytomation, Carpinteria, Calif.) as previously described (Baldelli et al. (2015) Oncotarget 6, 32368-32379). Arrays were first incubated with Reblot Antibody stripping solution (Chemicon, Temecula, Calif.), followed by two washes in PBS, and I-block solution (Tropix, Bedford, Mass.) for 4 hours. Arrays were probed with a total of 174 antibodies targeting a wide range of protein kinases and their activation via phosphorylation. Antibodies specificity was tested using standard immunoblotting on a panel of cell lysates. […]\nThe commercially available Signal Amplification System (CSA; Dako Cytomation) and a streptavidin-conjugated IRDye 680 secondary antibody (LI-COR Biosciences, Lincoln, Nebr.) were used as signal detection methods. Images were acquired on the laser-based PowerScanner (TECAN, Mönnedorf, Switzerland), and data were analyzed using the MicroVigene software Version 5.1 (Vigene Tech, Carlisle, Mass.) as previously described (Baldelli et al. (2015) Oncotarget 6, 32368-32379). […]"}, "[4]": {"tested_on": "HCI-13 PDX", "experiment": "HCI-13 (HCI-013) patient-derived xenograft in NSG mice", "assay_type": "in vivo", "details": "10 mpk p.o.", "procedure": "HCI-013 tumor pieces (1 mm^3) were implanted surgically (one per mouse) under the skin on the flanks of NSG mice. Tumors were allowed to grow and reach approximately 100 mm^3 volume (1*W*W*0.526). […] Tumor volume was measured weekly and represented as % change in tumor volume. Mice were sacrificed, tumors weighed, and stored for further analysis.\nas §1"}}, "data": [{"smiles": "C[C@](O)(COc1ccc(C#N)cc1)C(=O)Nc1ccc(C#N)c(C(F)(F)F)c1", "note": "[Formula IX, (S)—N-(4-Cyano-3-(trifluoromethyl)phenyl)-3-(4-cyanophenoxy)-2-hydroxy-2-methylpropanamide]", "values": [{"measurement": "lean body mass", "setting": "[1]", "result": "increased"}, {"measurement": "tumor growth trajectory", "setting": "[2]", "result": "Neither Formula IX nor enzalutamide altered the growth trajectory"}, {"measurement": "expression of proliferation marker Ki67", "setting": "[3]", "result": "inhibited the expression"}, {"measurement": "phosphorylation of oncogenic proteins (pERK, PKC z, RSK3, Ezrin, BCL2, ELF4G, ER)", "setting": "[3]", "result": "inhibited the phosphorylation"}, {"measurement": "phosphorylation of tumor suppressor proteins (p53, p27, ACC, AR)", "setting": "[3]", "result": "increased the phosphorylation"}, {"measurement": "tumor weight at sacrifice", "setting": "[4]", "result": "almost complete inhibition of tumor"}]}]}
